Literature values, collected in patent US12648892B2, “Emergency eye wash” (Lebrun Labs LLC, priority 2024, dated 2026).

Tests used:
[1] = tested on: eye; settings: eye damage classification; cited from earlier work; note: key: GHS Category 1 (Chemicals that cause extreme and irreversible damage to the eye)
[2] = most extreme pH value found for each chemical; includes diluted chemicals; cited from earlier work

SMILES | in vivo GHS [1] | pH [2]
O=S1(=O)OC(c2cc(Br)c(O)c(Br)c2)(c2cc(Br)c(O)c(Br)c2)c2c(Br)c(Br)c(Br)c(Br)c21 [compound 90] | 1 | 
CCN(CC)CCCC(C)Nc1c2ccc(Cl)cc2nc2ccc(OC)cc12 (stereo not drawn) [compound 3] | 1 | 
Cc1c(O)cccc1O [compound 100] | 1 | 
O=C=Nc1ccc(Cl)c(Cl)c1 [compound 107] | 1 | 
CC(C)(C)c1ccc(O)c(O)c1 [compound 96] | 1 | 
c1ccncc1 [compound 20] | 1 | 
CCN(CC)CCO [compound 53] | 1 | 11.5
CCCCCCCCCCCCCCCC[N+](C)(C)C.[Cl-] [compound 5] | 1 | 
C=CC(=O)OCCO [compound 81] | 1 | 
O=C(OC(C(=O)O)C(OC(=O)c1ccccc1)C(=O)O)c1ccccc1 (stereo not drawn) [compound 87] | 1 | 
CCCCCCCCCCCC[N+](C)(C)[O-] [compound 62] | 1 | 9.0
O=C([O-])c1c(Cl)c(Cl)c(Cl)c(Cl)c1-c1c2cc(Br)c(=O)c(Br)c-2oc2c(Br)c([O-])c(Br)cc12.[Na+].[Na+] [compound 34] | 1 | 
CCCCO [compound 15] | 1 | 
CC(CN1c2ccccc2Sc2ccccc21)N(C)C.Cl (stereo not drawn) [compound 21] | 1 | 
CC(O)C(=O)O (stereo not drawn) [compound 17] | 1 | 
CCCCCCCCCCCC[N+](C)(C)CC(O)CS(=O)(=O)[O-] (stereo not drawn) [compound 71] | 1 | 
CC(C)(O)CCC(C)(C)O [compound 68] | 1 | 
CCC(C)(C)C(=O)O [compound 94] | 1 | 
CCN(CC)CCC#N [compound 108] | 1 | 
[Na+].c1nc[n-]n1 [compound 105] | 1 | 
C#CC(C)(O)CC (stereo not drawn) [compound 76] | 1 | 
Nc1cccc(N)c1 [compound 18] | 1 | 
OC1CCCCC1 [compound 47] | 1 | 6.5

SMILES | in vivo GHS [1] | pH [2]
O=C(O)CCC(=O)C(=O)O [compound 49] | 1 | 1.5
O=C(O)Cc1cccc2ccccc12 [compound 43] | 1 | 5.0
O=S(=O)([O-])O.[Na+] [compound 65] | 1 | <1.0
N#CSc1ccc(N)c([N+](=O)[O-])c1 [compound 106] | 1 | 
CCCCCCCCCCCCCCCCCC[N+](C)(C)CCCCCCCCCCCCCCCCCC [compound 39] | 1 | 5.5
O=C(O)CO [compound 6] | 1 | 
CCCOC(=O)C(C)O (stereo not drawn) [compound 101] | 1 | 
O=S(=O)(Cl)c1ccccc1 [compound 80] | 1 | 
CCCCCCCC[N+](CCCCCCCC)(CCCCCCCC)CCCCCCCC.[Br-] [compound 66] | 1 | 3.9
CCC[CH2][Sn]([CH2]CCC)([CH2]CCC)[O][Sn]([CH2]CCC)([CH2]CCC)[CH2]CCC [compound 9] | 1 | 
[Na+].[OH-] [compound 56] | 1 | 14.0
O=C([O-])c1ccccc1O.[Na+] [compound 13] | 1 | 
CC(C)(C)CC(C)(C)c1ccc(O)cc1 [compound 2] | 1 | 
CCCCCCCCCCCCCCCCCC[N+](C)(C)C [compound 60] | 1 | 4.2
CC(C=O)Cc1ccc(C(C)(C)C)cc1 (stereo not drawn) [compound 38] | 1 | 
CCCCCCCCCCCCCCCC[n+]1ccccc1.O.[Cl-] [compound 35] | 1 | 
CO[Si](CCCNCCN)(OC)OC [compound 95] | 1 | 
O=c1[nH]sc2ccccc12 [compound 89] | 1 | 
Oc1ccc2ccc(O)cc2c1 [compound 99] | 1 | 
COC(=O)CS [compound 93] | 1 | 
CCCCCCCCCCCCCCCC[N+](C)(C)C.[Br-] [compound 28] | 1 | 
Oc1ccc(Cl)cc1Cc1ccccc1 [compound 82] | 1 | 
C1CCOC1 [compound 48] | 1 | 8.0

SMILES | in vivo GHS [1] | pH [2]
CCCCCCCCN [compound 55] | 1 | 11.8
CCCCCCCCCCCC(=O)O [compound 8] | 1 | 
O=C(O)C(Cl)(Cl)Cl [compound 57] | 1 | <1.0
CC(C)(O)C(=O)O [compound 51] | 1 | 1.0
OCc1ccccc1 [compound 16] | 1 | 
CCO[Si](CCCN)(OCC)OCC [compound 52] | 1 | 11.0
CCCCCCCCCCCC(=O)[O-].[K+] [compound 59] | 1 | 10.5
CSCCC(NC(C)=O)C(=O)O (racemic) [compound 88] | 1 | 
Cc1ccccc1NC(=N)NC(=N)N [compound 92] | 1 | 
CCCCC(CC)COC(=O)CC(C(=O)OCC(CC)CCCC)S(=O)(=O)[O-].[Na+] (stereo not drawn) [compound 58] | 1 | 6.5
C[Si](C)(CCCN)O[Si](C)(C)CCCN [compound 91] | 1 | 
O=C([O-])C(=O)[O-].[Na+].[Na+] [compound 4] | 1 | 
O=C1C2CC=CCC2C(=O)N1SC(Cl)(Cl)Cl (stereo not drawn) [compound 1] | 1 | 
CC(=O)O [compound 11] | 1 | 
CCOC(=O)C(C)(C)O [compound 83] | 1 | 
C=CC(=O)OCCOC [compound 79] | 1 | 
CCCCCCCCCCCCCCCC[n+]1ccccc1.[Br-] [compound 84] | 1 | 
O=C(O)c1ccccc1 [compound 32] | 1 | 
OCCCCCCCCCl [compound 69] | 1 | 
CCCCCCCCCCCCOS(=O)(=O)[O-].[Na+] [compound 7] | 1 | 
CCCCCCCCCCCC[N+](C)(C)CCOc1ccccc1.[Br-] [compound 26] | 1 | 
